Patent US20210235704A9, “Combinations of Lipo-Chitooligosaccharides and Methods for Use in Enhancing Plant Growth” (NOVOZYMES BIOAG A/S, priority 2011, published 2021)

Tested on: Florida petite cherry tomato plants
Assay: LCO foliar application on cherry tomato (greenhouse)
Format: in vivo
Conditions: at the end of harvest, compared to control treatment; FIG. 11
Experimental: Based on the findings from the soybean LCO and the alfalfa LCO combination in Siratro (example 1), further investigation was conducted on tomato. Florida petite cherry tomato plants were grown from seeds in greenhouse plastic containers and sprayed with soy LCO or its combination with alfalfa LCO during the initiation of flower buds at 5 ml/plant application rate. A second spry was also applied one week after the first application. At different maturity, leaf greenness, flower number, fruit number and final fruit fresh weight were measured.

With LCO-V(C18:1, MeFuc), MOR116 [soy LCO] the “average fruit number per plant” value was “significantly higher”.
